Experimental data: patent publication US20260297081A1, “COMPOUNDS AND METHODS OF TREATING CANCERS” (Cullgen Inc., priority 2023, published 2026)

Test system: Calu-1 cells
Test: Anti-proliferation (viability) of NSCLC Calu-1 cells, 3 days (Table 7, FIG. 2B)
Type: cell-based
Settings: Homo sapiens, 72 h; Calu-1 cells, 3 days, 10-point serial dilution; read-out: GI IC50 in Calu-1
Description: To evaluate anti-proliferation activities of heterobifunctional compounds, NSCLC Calu-1 or ER+ breast cancer T47D cells were treated with selected heterobifunctional compounds following a 10-point serial dilution for 3 or 6 days, respectively.
To verify that heterobifunctional compound-mediated degradation is dependent on the binding to CDK4-cyclin D complex, a negative control compound, CPD-143, which is derived from active heterobifunctional compound CPD-10 was designed. CPD-143 bears the same DDB1 ligand and linker as CPD-10 but with a modified warhead to impair the binding of the control compound to CDK4.

| Compound | IC50 [nM] |
| --- | --- |
| CC(=O)c1c(C)c2cnc(Nc3ccc(N4CCC5(CCN(CC(=O)NCC67CC(Nc8nc(NC(C)C)ccc8C(=O)Nc8ccc(N(C)C)nn8)(C6)C7)C5)C4)cn3)nc2n(C2CCCC2)c1=O (stereo not drawn) [CPD-485, 2-((3-((2-(7-(6-((6-acetyl-8-cyclopentyl-5-methyl-7-oxo-7,8-dihydropyrido[2,3-d]pyrimidin-2-yl)amino)pyridin-3-yl)-2,7-diazaspiro[4.4]nonan-2-yl)acetamido)methyl)bicyclo[1.1.1]pentan-1-yl)amino)-N-(6-(dimethylamino)pyridazin-3-yl)-6-(isopropylamino)nicotinamide] | ≤ 10 |
| [2H]C([2H])([2H])Nc1ccc(C(=O)Nc2ccc(N(C)C)nn2)c(NC2CCN(C(=O)CN3CC4(C3)CN(c3ccc(Nc5ncc6c(C)c(C(C)=O)c(=O)n(C7CCCC7)c6n5)nc3)C4)CC2)n1 [CPD-490, 2-((1-(2-(6-(6-((6-acetyl-8-cyclopentyl-5-methyl-7-oxo-7,8-dihydropyrido[2,3-d]pyrimidin-2-yl)amino)pyridin-3-yl)-2,6-diazaspiro[3.3]heptan-2-yl)acetyl)piperidin-4-yl)amino)-N-(6-(dimethylamino)pyridazin-3-yl)-6-((methyl-d3)amino)nicotinamide] | ≥ 50 |
| CC(=O)c1c(C)c2cnc(Nc3ccc(CN4CC5(C4)CN(C(=O)CN4CC6(CC(Nc7nc(NC(C)C)ccc7C(=O)Nc7ccc(N(C)C)nn7)C6)C4)C5)cn3)nc2n(C2CCCC2)c1=O [CPD-497, 2-((2-(2-(6-((6-((6-acetyl-8-cyclopentyl-5-methyl-7-oxo-7,8-dihydropyrido[2,3-d]pyrimidin-2-yl)amino)pyridin-3-yl)methyl)-2,6-diazaspiro[3.3]heptan-2-yl)-2-oxoethyl)-2-azaspiro[3.3]heptan-6-yl)amino)-N-(6-(dimethylamino)pyridazin-3-yl)-6-(isopropylamino) nicotinamide] | ≥ 50 |
| [2H]C([2H])([2H])Nc1ccc(C(=O)Nc2ccc(N(C)C)nn2)c(NC2CC(NC(=O)N3CCC(N4CCN(c5ccc(Nc6ncc7c(C)c(C(C)=O)c(=O)n(C8CCCC8)c7n6)nc5)CC4)C3)C2)n1 (stereo not drawn) [CPD-494, 2-((3-(3-(4-(6-((6-acetyl-8-cyclopentyl-5-methyl-7-oxo-7,8-dihydropyrido[2,3-d]pyrimidin-2-yl)amino)pyridin-3-yl)piperazin-1-yl)pyrrolidine-1-carboxamido)cyclobutyl)amino)-N-(6-(dimethylamino)pyridazin-3-yl)-6-((methyl-d3)amino)nicotinamide] | ≥ 50 |
| CC(=O)c1c(C)c2cnc(Nc3ccc(CN4CCN(CC(=O)NCC56CC(Nc7nc(NC(C)C)ccc7C(=O)Nc7ccc(N(C)C)nn7)(C5)C6)CC4)cn3)nc2n(C2CCCC2)c1=O [CPD-479, 2-((3-((2-(4-((6-((6-acetyl-8-cyclopentyl-5-methyl-7-oxo-7,8-dihydropyrido[2,3-d]pyrimidin-2-yl)amino)pyridin-3-yl)methyl)piperazin-1-yl)acetamido)methyl)bicyclo[1.1.1]pentan-1-yl)amino)-N-(6-(dimethylamino)pyridazin-3-yl)-6-(isopropylamino)nicotinamide] | ≤ 10 |

Other lines, results leading:

| IC50 [nM] | Compound |
| --- | --- |
| 10 to 50 | [2H]C([2H])([2H])Nc1ccc(C(=O)Nc2cc3n(n2)CCC3)c(N[C@H]2CC[C@H](C(=O)N3CCC(N4CCN(c5ccc(Nc6ncc7c(C)c(C(C)=O)c(=O)n(C8CCCC8)c7n6)nc5)CC4)C3)CC2)n1 (stereo partly drawn) [CPD-521, 2-((trans-4-(3-(4-(6-((6-acetyl-8-cyclopentyl-5-methyl-7-oxo-7,8-dihydropyrido[2,3-d]pyrimidin-2-yl)amino)pyridin-3-yl)piperazin-1-yl)pyrrolidine-1-carbonyl)cyclohexyl)amino)-N-(5,6-dihydro-4H-pyrrolo[1,2-b]pyrazol-2-yl)-6-((methyl-d3)amino)nicotinamide] |
| 10 to 50 | CC(=O)c1c(C)c2cnc(Nc3ccc(CN4CCN(CC(=O)NC56CC(Nc7nc(NC(C)C)ccc7C(=O)Nc7ccc(N(C)C)nn7)(C5)C6)CC4)cn3)nc2n(C2CCCC2)c1=O [CPD-502, 2-((3-(2-(4-((6-((6-acetyl-8-cyclopentyl-5-methyl-7-oxo-7,8-dihydropyrido[2,3-d]pyrimidin-2-yl)amino)pyridin-3-yl)methyl)piperazin-1-yl)acetamido)bicyclo[1.1.1]pentan-1-yl)amino)-N-(6-(dimethylamino)pyridazin-3-yl)-6-(isopropylamino)nicotinamide] |
| ≤ 10 | CC(=O)c1c(C)c2cnc(Nc3ccc(N4CCN(C5CCN(C(=O)CN6CC7(CC(Nc8nc(NC(C)C)ccc8C(=O)Nc8ccc(N(C)C)nn8)C7)C6)C5)CC4)cn3)nc2n(C2CCCC2)c1=O (stereo not drawn) [CPD-518, 2-((2-(2-(3-(4-(6-((6-acetyl-8-cyclopentyl-5-methyl-7-oxo-7,8-dihydropyrido[2,3-d]pyrimidin-2-yl)amino)pyridin-3-yl)piperazin-1-yl)pyrrolidin-1-yl)-2-oxoethyl)-2-azaspiro[3.3]heptan-6-yl)amino)-N-(6-(dimethylamino)pyridazin-3-yl)-6-(isopropylamino)nicotinamide] |
| ≥ 50 | CNc1ccc(C(=O)Nc2ccc(N(C)C)nn2)c(NC2CN(CC(=O)N3CCN(Cc4ccc(Nc5ncc6c(C)c(C(C)=O)c(=O)n(C7CCCC7)c6n5)nc4)CC3)C2)n1 [CPD-513, 2-((1-(2-(4-((6-((6-acetyl-8-cyclopentyl-5-methyl-7-oxo-7,8-dihydropyrido[2,3-d]pyrimidin-2-yl)amino)pyridin-3-yl)methyl)piperazin-1-yl)-2-oxoethyl)azetidin-3-yl)amino)-N-(6-(dimethylamino)pyridazin-3-yl)-6-(methylamino)nicotinamide] |
| 10 to 50 | CC(=O)c1c(C)c2cnc(Nc3ccc(N4CCN(C5CCN(C(=O)C6(C)CCC(Nc7nc(NC(C)C)ccc7C(=O)Nc7ccc(N(C)C)nn7)CC6)C5)CC4)cn3)nc2n(C2CCCC2)c1=O (stereo not drawn) [CPD-516, 2-((4-(3-(4-(6-((6-acetyl-8-cyclopentyl-5-methyl-7-oxo-7,8-dihydropyrido[2,3-d]pyrimidin-2-yl)amino)pyridin-3-yl)piperazin-1-yl)pyrrolidine-1-carbonyl)-4-methylcyclohexyl)amino)-N-(6-(dimethylamino)pyridazin-3-yl)-6-(isopropylamino)nicotinamide] |
| ≥ 50 | CC(=O)c1c(C)c2cnc(Nc3ccc(CN4CC5(CN(CC(=O)N6CC7(CC(Nc8nc(NC(C)C)ccc8C(=O)Nc8ccc(N(C)C)nn8)C7)C6)C5)C4)cn3)nc2n(C2CCCC2)c1=O [CPD-508, 2-((2-(2-(6-((6-((6-acetyl-8-cyclopentyl-5-methyl-7-oxo-7,8-dihydropyrido[2,3-d]pyrimidin-2-yl)amino)pyridin-3-yl)methyl)-2,6-diazaspiro[3.3]heptan-2-yl)acetyl)-2-azaspiro[3.3]heptan-6-yl)amino)-N-(6-(dimethylamino)pyridazin-3-yl)-6-(isopropylamino)nicotinamide] |
| ≥ 50 | [2H]C([2H])([2H])Nc1ccc(C(=O)Nc2cccc(OC)n2)c(N[C@H]2CC[C@H](C(=O)N3CCC(N4CCN(c5ccc(Nc6ncc7c(C)c(C(C)=O)c(=O)n(C8CCCC8)c7n6)nc5)CC4)C3)CC2)n1 (stereo partly drawn) [CPD-523, 2-((trans-4-(3-(4-(6-((6-acetyl-8-cyclopentyl-5-methyl-7-oxo-7,8-dihydropyrido[2,3-d]pyrimidin-2-yl)amino)pyridin-3-yl)piperazin-1-yl)pyrrolidine-1-carbonyl)cyclohexyl)amino)-N-(6-methoxypyridin-2-yl)-6-((methyl-d3)amino)nicotinamide] |
